Reference: patent publication JP2013032353A, “ロキソプロフェン含有医薬組成物” (priority 2011, dated 2013)

Tests used:
[1] = Interaction study: storage of loxoprofen sodium hydrate/drug mixtures and of the single drugs at 60 °C (Test Examples 1, 4, 7, 10, 13, 16, 18, 20, 21, 23, 25, 27); assay type: physicochemical; details: stored 1 week in glass bottle (3K), evaluated at start, 1 day, 3 days (2 days in Test Examples 10 and 16) and 1 week
[2] = test system: gastric mucosal injury caused by loxoprofen [ロキソプロフェンに起因する胃粘膜障害]; assay: Suppression of loxoprofen-induced gastrointestinal injury in rats (Test Examples 3, 6, 9, 12, 15, 24); assay type: in vivo, rat (Wistar); details: rat, 1 h before loxoprofen sodium hydrate 120 mg/kg p.o., result in words

Compound | state in the glass bottle on storage [1] | also measured
CN1CCC(OC(c2ccccc2)c2ccccc2)CC1 [ジフェニルピラリン塩酸塩] | 変化は生じなかった | reduction of loxoprofen-induced gastric mucosal injury ([2]; oral, 3, 10 mg/5 mL/kg): 軽減した
Nc1c(Br)cc(Br)cc1CN[C@H]1CC[C@H](O)CC1 [アンブロキソール塩酸塩] | 変化は生じなかった | 
COc1ccc2c3c1O[C@H]1[C@@H](O)CC[C@H]4[C@@H](C2)N(C)CC[C@@]341 [ジヒドロコデインリン酸塩] |  | reduction of loxoprofen-induced gastric mucosal injury ([2]; oral, 8, 24, 72 mg/5 mL/kg, n=6): 軽減した
CN(C)CC[C@@H](c1ccc(Cl)cc1)c1ccccn1.O=C(O)/C=C\C(=O)O [クロルフェニラミンマレイン酸塩, d−クロルフェニラミンマレイン酸塩] | 変化は生じなかった | reduction of loxoprofen-induced gastric mucosal injury ([2]; oral, 5, 40 mg/5 mL/kg): 軽減した
C[C@@H]([C@H](O)c1ccccc1)N(C)C.Cl [dl−メチルエフェドリン塩酸塩] | 変化は生じなかった | reduction of loxoprofen-induced gastric mucosal injury ([2]; oral, 20, 60, 180 mg/5 mL/kg): 軽減した
CN(Cc1cc(Br)cc(Br)c1N)C1CCCCC1 [ブロムヘキシン塩酸塩] | 変化は生じなかった | 
CN1CCC[C@@H]1CCO[C@](C)(c1ccccc1)c1ccc(Cl)cc1 [クレマスチンフマル酸塩] | 変化は生じなかった | reduction of loxoprofen-induced gastric mucosal injury ([2]; oral, 1 mg/5 mL/kg): 軽減した
CN(C)CCOC(c1ccc(Cl)cc1)c1ccccn1 (centres unmarked) [カルビノキサミンマレイン酸塩] | 変化は生じなかった | reduction of loxoprofen-induced gastric mucosal injury ([2]; oral, 0.75, 75 mg/5 mL/kg): 軽減した
COc1ccccc1OCC(O)CO (centres unmarked) [グアイフェネシン] | 変化は生じなかった | 
COc1ccc2c(c1)[C@]13CCCC[C@@H]1[C@H](C2)N(C)CC3 [デキストロメトルファン臭化水素酸塩水和物] | 変化は生じなかった | 
リゾチーム塩酸塩: リゾチーム塩酸塩 (lysozyme hydrochloride) | 変化は生じなかった | 
CC(C(=O)[O-])c1ccc(CC2CCCC2=O)cc1.O.O.[Na+] (centres unmarked) [ロキソプロフェンナトリウム水和物, Monosodium 2-[4-[(2-oxocyclopentyl)methyl]phenyl]propanoate dihydrate] | 変化は生じなかった | 
